Common to all, as to assay type: biochemical
Test [1] addresses T1, human sputum elastase (HSE) (Homo sapiens, UniProt P08246).
T1 construct: purchased Sigma Inc; host or cells: human sputum (by its name)
T1 sequence (P08246 30-247 limits assumed): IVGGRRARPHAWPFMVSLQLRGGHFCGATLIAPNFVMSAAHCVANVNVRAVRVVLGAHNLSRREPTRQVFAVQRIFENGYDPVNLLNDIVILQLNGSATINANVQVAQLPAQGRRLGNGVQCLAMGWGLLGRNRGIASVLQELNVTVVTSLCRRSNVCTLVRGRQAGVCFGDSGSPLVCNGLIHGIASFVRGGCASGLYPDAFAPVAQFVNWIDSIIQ
Briefly: HSE inhibitory activity. Particulars: HSE 10 nM, substrate 0.25 mM, pH 7.0. The procedure:
(§1) Inhibotory activities of the oxadinone derivative of the present invention against human leukocyte elastase (HLE), human sputum elastase (HSE), human cathepsin G (HCG), bovine pancreatic α-chymotrypsin (CYT) and bovine pancreatic trypsin (TRY) were measured as follows:
(2) Measurement of HSE Inhibiting Activity
(§2) a) Enzyme Preparing Method Bought from Sigma Inc.
Employed was a measuring method similar to that described previously in conjunction with the measurement of the HLE inhibitory activity, except that used was a buffer solution of pH 7.0. The final concentrations of HSE and the synthetic substrate (MeOSuc-Ala-Ala-Pro-Phe-pNA; FUNAKOSHI) in the solution of the enzyme reaction were 10 nM and 0.25 mM, respectively.

Test [2] concerns the target T2, human leukocyte elastase (HLE) (Homo sapiens, UniProt P08246).
T2 construct: applying a density gradient centrifugal operation so as to obtain neutrophils; from tissue; host or cells: neutrophils from human venous blood
T2 sequence (P08246 30-267): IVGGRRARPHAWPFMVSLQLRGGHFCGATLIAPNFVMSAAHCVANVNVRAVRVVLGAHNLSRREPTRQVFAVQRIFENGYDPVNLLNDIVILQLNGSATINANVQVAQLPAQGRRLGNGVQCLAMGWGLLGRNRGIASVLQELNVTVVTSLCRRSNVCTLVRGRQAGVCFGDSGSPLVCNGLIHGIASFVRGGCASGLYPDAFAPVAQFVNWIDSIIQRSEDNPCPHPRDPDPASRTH
Put plainly: HLE inhibitory activity. Particulars: HLE 5.63 nM, substrate 0.2625 mM, pH 8.6, 37° C. On the procedure:
as §1
(1) Measurement of HLE Inhibitory Activity
A buffy coat was obtained by subjecting human vein blood to centrifugal separation, followed by adding distilled water to the buffy coat thus obtained for performing a low tension treatment so as to collapse erythrocytes. A mixture consisting of 10 parts of a 33.4% Conrey 400 solution and 24 parts of 9% of Ficoll solution was added to the residual blood cell component, followed by applying a density gradient centrifugal operation so as to obtain neutrophils. The neutrophil fraction was washed three times with Hanks' buffer so as to recover cells, which were frozen at -80° C. for preservation until the cells were used. The cells preserved under a frozen state were thawed with warm water of 37° C. and suspended in the lysis buffer (0.1M Tris-HCl pH 7.5, 1M MgCl2, 0.1% Brij 35), the amount of the buffer being 9 times as much as that of the cells. Then, the suspended cells were collapsed with polotron while cooling the suspension with ice. Then, the suspension was subjected to a centrifugal separation at 100,000×g for one hour so as to remove the precipitate. Also, a buffer (5 mM Tris-HCl pH 7.5, 1M NaCl, 1.1% Brij 35) was added to the supernatant in an amount twice as much as the supernatant so as to prepare a crude solution of an enzyme extract. The crude solution of an enzyme extract was adsorbed on an aprotinin affinity column. Further, the active fraction eluted with a 50 ml glycine-HCl solution (pH 3.3, 1M NaCl, 0.1% Brij 35) was passed through a MONO S ion-exchange chromatography. The active fraction eluted with a 2M NaCl linear gradient was dialyzed and, then, subjected to a freeze-drying so as to prepare an enzyme sample.
A test compound to be detected was dissolved in DMSO (for fluorometry) so as to prepare solutions of various concentrations. Then, the solution of 0.2M Tris-HCl (pH 9.6) was added to each of the solutions in an amount twice as much as the solution so as to prepare a test solution. On the other hand, a synthetic substrate (MeOSuc-Ala-Pro-Val-pNA; FUNAKOSHI) was dissolved in DMSO, followed by adding 0.2M tris-HCl solution (pH 8.6) to the solution in an amount twice as much as the solution so as to prepare a substrate solution.
A microplate (NUNK) provided with 96 wells was used for the reaction. The reaction was repeatedly carried out 6 times for each concentration of the test compound. Each of 140 μl of the enzyme solution (0.2M Tris-HCl, pH 8.6), 30 μl of the test material solution and 30 μl of the substrate solution was pre-incubated for 10 minutes at 37° C. for each well of the microplate. After incubation of a mixture of the enzyme solution and the test material solution for 10 minutes, the substrate solution was added so as to carry out the enzyme reaction. For determining the substrate decomposition, the absorbance (405 run) of the released pNA was measured by a microplate reader (MTP-100; CORONA), and the substrate decomposition was calculated on the basis of the average value of the absorbances repeatedly measured 6 times. The inhibitory concentration of the test compound relative to the decomposition amount of the substrate in the case where the test compound was not added was obtained as IC50 value.

The target of test [3] is T3, bovine pancreatic α-chymotrypsin (CYT) (Bos taurus, UniProt P00766).
T3 construct: purchased Sigma Inc; host or cells: bovine pancreas (by its name)
Briefly: CYT inhibitory activity. Particulars: CYT 3.4 nM, substrate 0.273 mM, pH 8.0. On the procedure: as §1
(4) Measurement of CYT Inhibitory Activity
as §2
Employed was a measuring method similar to that described previously in conjunction with the measurement of the HLE inhibiting activity, except that used was a buffer solution of pH 8.0. The final concentrations of CYT and the synthetic substrate (Ac-Ala-Ala-Pro-Phe-pNA; FUNAKOSHI) in the solution of the enzyme reaction were 3.4 nM and 0.273 mM, respectively.

For `Cc1cccc2nc([C@H](CC(C)C)NC(=O)OCC3c4ccccc4-c4ccccc43)oc(=O)c12` [Compound 2, 2-{1(S)-[(9-fluorenylmethoxycarbonyl)amino]-3-methylbutyl}-5-methyl-4H-3,1-benzoxazin-4-one], the IC50 (usually the point on the concentration scale where inhibition reaches its midpoint) was found to be 300 nM in test [1], 730 nM in test [2] and 4460 nM in test [3].
Taken in the same sequence, the figures for `Cc1cccc2nc([C@@H](NC(=O)OCC3c4ccccc4-c4ccccc43)C(C)C)oc(=O)c12` [Compound 1, 2-{1(S)-[(9-fluorenylmethoxycarbonyl)amino]-2-methylpropyl}-5-methyl-4H-3,1-benzoxazin-4-one] were 310 nM, 240 nM and 4750 nM.

The values above are taken from patent publication US5332734A, “Oxazinone derivative” (Japan Tobacco, Incorporated, priority 1991, dated 1994).
